Data on one compound can be found in US20240002365A1, “PYRIDAZINE AND 1,2,4-TRIAZINE DERIVATIVES AS FGFR KINASE INHIBITORS” (BETA PHARMA, INC., priority 2020, published 2024).

The target in the test is FGFR1 (Homo sapiens (Human), UniProt P11362). Kind of test: RBC NanoBRET Assay for Target Engagement in HEK293 cells transfected with FGFR1-NanoLuc Fusion vector. Format: cell-based. The note with it: 1 hour, tracer K5 1 μM. The method, then:
Cellular Assay. The RBC NanoBRET Assay for Target Engagement was performed by Reaction Biology Corporation, 1 Great Valley Parkway, Suite 2 Malvern, PA 19355, USA. The assay was conducted in HEK293 cells transiently transfected with FGFR1-NanoLuc Fusion vector. The HEK293 cells (ATCC) were transfected with 1 μg of FGFR1-NanoLuc Fusion vector in 384-well format and the transfected cells were subsequently treated with the test compounds (starting at 10 μM, 10-dose with 3-fold dilution) for 1 hour using CTx-0294885 as the reference standard and K5 (1 μM) was used as the tracer. FGFR1 target engagement was measured and the curve fits were performed only when % NanoBret signal at the highest concentration of compounds was less than 55%.
(In general: In BRET a luciferase serves as donor, and the signal depends on an acceptor being close.)

Each structure is given as a SMILES string.

Chain of FGFR1 (P11362 22-822): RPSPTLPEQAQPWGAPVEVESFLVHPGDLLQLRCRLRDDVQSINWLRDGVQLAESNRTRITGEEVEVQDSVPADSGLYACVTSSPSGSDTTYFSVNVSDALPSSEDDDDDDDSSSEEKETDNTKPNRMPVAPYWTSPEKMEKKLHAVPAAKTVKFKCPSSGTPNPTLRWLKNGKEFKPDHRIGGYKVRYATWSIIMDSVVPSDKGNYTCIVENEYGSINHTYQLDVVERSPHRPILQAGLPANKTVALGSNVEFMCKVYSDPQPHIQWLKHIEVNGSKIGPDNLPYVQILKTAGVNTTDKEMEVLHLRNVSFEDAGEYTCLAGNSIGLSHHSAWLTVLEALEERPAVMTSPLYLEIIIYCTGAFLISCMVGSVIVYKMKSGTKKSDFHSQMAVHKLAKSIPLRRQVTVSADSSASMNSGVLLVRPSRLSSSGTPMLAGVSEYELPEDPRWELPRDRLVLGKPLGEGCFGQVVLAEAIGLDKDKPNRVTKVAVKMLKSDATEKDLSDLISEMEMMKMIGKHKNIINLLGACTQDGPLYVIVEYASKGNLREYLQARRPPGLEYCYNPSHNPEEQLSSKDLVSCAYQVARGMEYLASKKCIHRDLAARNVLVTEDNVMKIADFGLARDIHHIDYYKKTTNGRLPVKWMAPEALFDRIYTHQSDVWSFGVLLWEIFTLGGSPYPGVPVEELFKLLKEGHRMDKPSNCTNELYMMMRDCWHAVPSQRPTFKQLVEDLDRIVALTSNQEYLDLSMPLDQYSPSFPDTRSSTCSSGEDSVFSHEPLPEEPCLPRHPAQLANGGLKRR

In the case of `COc1cc(OC)cc(N(CCNC(C)C)c2ccc3nnc(-c4cnn(C)c4)cc3c2)c1` [Example 1, N^1-(3,5-Dimethoxyphenyl)-N^2-isopropyl-N^1-(3-(1-methyl-1H-pyrazol-4-yl)cinnolin-6-yl)ethane-1,2-diamine], the IC50 (in general, the concentration needed to halve the response being measured) is 9.5 nM. This counts as single-digit nanomolar.
